From patent EP4810494A1, “HPK1 DEGRADATION AGENT AND USE THEREOF IN FIELD OF MEDICINE” (Haisco Pharmaceutical Group Co., Ltd., priority 2023, dated 2025)
Counter-ions that a name gives are not always drawn.

Target: T1, HPK1 kinase (Homo sapiens, UniProt Q92918)
T1 construct: purchased Carna 07-410
T1 sequence (Q92918 1-346 limits assumed): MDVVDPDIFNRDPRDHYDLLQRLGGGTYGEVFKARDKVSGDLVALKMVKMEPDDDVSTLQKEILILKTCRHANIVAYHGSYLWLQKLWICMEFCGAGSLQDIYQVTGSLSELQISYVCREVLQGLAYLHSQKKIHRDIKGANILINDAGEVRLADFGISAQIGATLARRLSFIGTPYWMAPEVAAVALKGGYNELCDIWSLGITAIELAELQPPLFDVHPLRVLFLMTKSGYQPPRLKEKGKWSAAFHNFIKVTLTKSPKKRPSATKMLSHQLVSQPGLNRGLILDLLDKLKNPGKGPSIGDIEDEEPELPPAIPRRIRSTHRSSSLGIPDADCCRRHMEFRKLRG
Assay: HPK1 kinase assay (1 mM ATP)
Assay type: biochemical
Details: not given
Experimental: Test example 5: HPK1 kinase assay (1 mM ATP)
The kinase HPK1 (Carna, Cat.No 07-410) was prepared into 2× kinase solution using 1× kinase buffer. The substrate Fluorescein-PKC (Invitrogen, Cat. No. PV3506) and ATP (working concentration: 1 mM) (Sigma, Cat. No. 2383-5G) were prepared into 2× substrate solution using 1×kinase buffer. The detection reagent was diluted to 2-fold the final concentration using an antibody diluent. 100 nL of compounds at different concentrations and 5 µL of kinase solution were added to each well of a 384-well plate, and the mixture was incubated at room temperature for 10 minutes. After the incubation was completed, 5 µL of substrate solution was added to each well, and the resulting mixture was reacted at room temperature for 90 minutes. After the reaction was completed, 10 µL of detection reagent was added to each well to terminate the reaction, and the mixture was incubated at room temperature for 60 minutes. Fluorescence readings were detected using an Envision instrument with excitation at 320 nm and emission at 520 nm and 495 nm. IC50 value was calculated using XLFit excel add-in version 5.4.0.8 software. The calculation formula of the inhibition rate was shown in formula 5-1, wherein max is the Ratio of the DMSO control, min is the Ratio of the negative control without enzyme, and sample is the Ratio of the compound. Ratio = RFU520nm /RFU495nm [formula] Inhibition% = (max−sample)/(max−min) × 100% [formula] Table 5-1 Inhibitory activity of test compounds against HPK1 kinase

SMILES	IC50
CN(C)Cc1nc(Nc2ccc(-c3cnc4cc(F)ccn34)c3c2C(=O)NC3)ccc1C1CCN(CC2CCN(c3ccc(N4CCC(=O)NC4=O)c(F)c3)CC2)CC1 [Trifluoroacetic acid salt of compound 9]	< 50 nM
CN(C)Cc1nc(Nc2ccc(-c3cnc4cc(F)ccn34)c3c2C(=O)NC3)ccc1N1CCC(CN2CCN(c3ccc(N4CCC(=O)NC4=O)c(F)c3)CC2)CC1 [Trifluoroacetic acid salt of compound 12]	< 50 nM
O=C1CCC(c2ccc(N3CCC(CN4CCC(c5ccc(Nc6ccc(-c7cnc8cc(F)ccn78)c7c6C(=O)NC7)nc5)CC4)CC3)cc2F)C(=O)N1 (stereo not shown) [Trifluoroacetic acid salt of compound 17]	< 50 nM
O=C1CCN(c2ccc(N3CCC(CN4CCC(c5ccc(Nc6ccc(-c7cnc8cc(F)ccn78)c7c6C(=O)NC7)nc5)CC4)CC3)cc2F)C(=O)N1 [Trifluoroacetic acid salt of compound 18]	< 50 nM
O=C1CCN(c2cc3c(cc2F)N2CCN(CC4CN(c5ccc(Nc6ccc(-c7cnc8cc(F)ccn78)c7c6C(=O)NC7)nc5)C4)C[C@H]2CC3)C(=O)N1 [Trifluoroacetic acid salt of compound 21]	< 50 nM
O=C1CCN(c2cc3c(cc2F)N2CCN(CC4CN(c5ccc(Nc6ccc(-c7cnc8cc(F)ccn78)c7c6C(=O)NC7)nc5)C4)C[C@@H]2CC3)C(=O)N1 [Trifluoroacetic acid salt of compound 22]	< 50 nM
N#Cc1ccn2c(-c3ccc(Nc4ccc(N5CCC(N6CCN7c8cc(F)c(N9CCC(=O)NC9=O)cc8CC[C@H]7C6)CC5)cn4)c4c3CNC4=O)cnc2c1 [Trifluoroacetic acid salt of compound 45]	< 50 nM

Same assay, conditions: ATP working concentration: 1 mM

SMILES	IC50
N#Cc1ccn2c(-c3ccc(Nc4ccc(N5CCC6(CC5)CC(N5CCN7c8cc(F)c(N9CCC(=O)NC9=O)cc8CC[C@@H]7C5)C6)cn4)c4c3CNC4=O)cnc2c1 [Compound 48]	< 50 nM
CN(C)Cc1nc(Nc2ccc(-c3cnc4cc(F)ccn34)c3c2C(=O)NC3)ccc1N1CCC(CN2CCN3c4cc(F)c(N5CCC(=O)NC5=O)cc4CC[C@H]3C2)CC1 [Trifluoroacetic acid salt of compound 10]	< 50 nM
CN(C)Cc1nc(Nc2ccc(-c3cnc4cc(F)ccn34)c3c2C(=O)NC3)ccc1N1CCC(CN2CCN3c4cc(F)c(N5CCC(=O)NC5=O)cc4CC[C@@H]3C2)CC1 [Trifluoroacetic acid salt of compound 11]	< 50 nM
O=C1CCN(c2cc3c(cc2F)N2CCN(CC4CCN(c5ccc(Nc6ccc(-c7cnc8cc(F)ccn78)c7c6C(=O)NC7)nc5CN5CC(F)(F)C5)CC4)C[C@H]2CC3)C(=O)N1 [Trifluoroacetic acid salt of compound 23]	< 50 nM
O=C1CCN(c2cc3c(cc2F)N2CCN(CC4CCN(c5ccc(Nc6ccc(-c7cnc8cc(F)ccn78)c7c6C(=O)NC7)nc5CN5CC(F)(F)C5)CC4)C[C@@H]2CC3)C(=O)N1 [Trifluoroacetic acid salt of compound 24]	< 50 nM
O=C1CCN(c2cc3c(cc2F)N2CCN(CC4CCN(c5ccc(Nc6ccc(-c7cnc8cc(F)ccn78)c7c6C(=O)NC7)nc5CN5CCC(F)(F)C5)CC4)CC2CC3)C(=O)N1 (stereo not shown) [Trifluoroacetic acid salt of compound 25]	< 50 nM
O=C1CCN(c2cc3c(cc2F)N2CCN(CC4CCN(c5ccc(Nc6ccc(-c7cnc8cc(F)ccn78)c7c6C(=O)NC7)nc5CN5CCC(F)(F)C5)CC4)C[C@H]2CC3)C(=O)N1 [Trifluoroacetic acid salt of compound 28]	< 50 nM
O=C1CCN(c2cc3c(cc2F)N2CCN(CC4CCN(c5ccc(Nc6ccc(-c7cnc8cc(F)ccn78)c7c6C(=O)NC7)nc5CN5CC[C@H](F)C5)CC4)C[C@H]2CC3)C(=O)N1 [Trifluoroacetic acid salt of compound 29]	< 50 nM
O=C1CCN(c2cc3c(cc2F)N2CCN(CC4CCN(c5ccc(Nc6ccc(-c7cnc8cc(F)ccn78)c7c6C(=O)NC7)nc5CN5CC[C@@H](F)C5)CC4)C[C@H]2CC3)C(=O)N1 [Trifluoroacetic acid salt of compound 30]	< 50 nM
O=C1CC[C@H](NC(=O)c2cc3c(cc2F)N2CCN(C4CC5(CCN(c6ccc(Nc7ccc(-c8cnc9cc(F)ccn89)c8c7C(=O)NC8)nc6)CC5)C4)C[C@@H]2CC3)C(=O)N1 [Trifluoroacetic acid salt of compound 33]	< 50 nM
N#Cc1ccn2c(-c3ccc(Nc4ccc(N5CCC6(CC5)CC(N5CCN7c8cc(F)c(N9CCC(=O)NC9=O)cc8CC[C@H]7C5)C6)cn4)c4c3CNC4=O)cnc2c1 [Trifluoroacetic acid salt of compound 43]	< 50 nM
O=C1CCN(c2cc3c(cc2F)N2CCN(C4CCC5(CC4)CCN(c4ccc(Nc6ccc(-c7cnc8cc(F)ccn78)c7c6C(=O)NC7)nc4)CC5)C[C@H]2CC3)C(=O)N1 [Trifluoroacetic acid salt of compound 44]	< 50 nM
N#Cc1ccn2c(-c3ccc(Nc4ccc(N5CCC6(CCC(N7CCN8c9cc(F)c(N%10CCC(=O)NC%10=O)cc9CC[C@@H]8C7)CC6)CC5)cn4)c4c3CNC4=O)cnc2c1 [Trifluoroacetic acid salt of compound 46]	< 50 nM
O=C1CCN(c2cc3c(cc2F)N2CCN(C4CCC5(CC4)CCN(c4ccc(Nc6ccc(-c7cnc8cc(F)ccn78)c7c6C(=O)NC7)nc4)CC5)C[C@@H]2CC3)C(=O)N1 [Trifluoroacetic acid salt of compound 47]	< 50 nM

Same assay, conditions: ATP working concentration: 1 mM; read-out: IC50

SMILES	IC50
O=C1CCC(c2ccc(N3CCN(CC4CCN(c5ccc(Nc6ccc(-c7cnc8cc(F)ccn78)c7c6C(=O)NC7)nc5)CC4)CC3)cc2F)C(=O)N1 (single isomer, unassigned) [Compound 1-2]	< 50 nM
O=C1CCN(c2cc3c(cc2F)N2CCN(CC4CC5(CCN(c6ccc(Nc7ccc(-c8cnc9cc(F)ccn89)c8c7C(=O)NC8)nc6)CC5)C4)C[C@H]2CC3)C(=O)N1 [Compound 16]	< 50 nM
CN(C)Cc1nc(Nc2ccc(-c3cnc4cc(F)ccn34)c3c2C(=O)NC3)ccc1C1CCN(CC2(F)CCN(c3ccc(N4CCC(=O)NC4=O)c(F)c3)CC2)CC1 [Compound 38]	< 50 nM

Target: T2, HPK1 protein (Homo sapiens, UniProt Q92918)
T2 construct: host or cells: Jurkat cells
T2 sequence (Q92918 whole entry): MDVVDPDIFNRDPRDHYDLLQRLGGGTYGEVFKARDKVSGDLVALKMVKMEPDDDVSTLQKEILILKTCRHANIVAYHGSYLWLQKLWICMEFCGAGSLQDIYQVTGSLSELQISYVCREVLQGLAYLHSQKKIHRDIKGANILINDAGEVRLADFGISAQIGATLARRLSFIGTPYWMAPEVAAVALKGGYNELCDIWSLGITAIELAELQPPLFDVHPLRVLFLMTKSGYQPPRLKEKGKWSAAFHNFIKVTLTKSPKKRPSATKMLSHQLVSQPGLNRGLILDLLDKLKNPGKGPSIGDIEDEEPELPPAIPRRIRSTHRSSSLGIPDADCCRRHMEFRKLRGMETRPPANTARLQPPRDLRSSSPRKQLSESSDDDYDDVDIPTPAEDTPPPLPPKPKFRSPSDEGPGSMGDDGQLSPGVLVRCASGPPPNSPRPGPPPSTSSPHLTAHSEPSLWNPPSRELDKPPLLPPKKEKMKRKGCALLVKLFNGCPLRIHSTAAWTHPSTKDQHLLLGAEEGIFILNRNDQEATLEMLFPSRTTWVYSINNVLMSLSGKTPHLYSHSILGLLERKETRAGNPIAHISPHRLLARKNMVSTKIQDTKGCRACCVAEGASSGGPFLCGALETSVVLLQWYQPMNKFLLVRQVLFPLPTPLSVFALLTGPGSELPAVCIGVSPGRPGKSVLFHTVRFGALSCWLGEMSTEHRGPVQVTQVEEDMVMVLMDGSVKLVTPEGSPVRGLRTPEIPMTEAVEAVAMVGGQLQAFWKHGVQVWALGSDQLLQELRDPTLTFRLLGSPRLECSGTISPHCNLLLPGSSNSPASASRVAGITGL
Assay: Detection of HPK1 protein expression level in Jurkat cells (24 h)
Assay type: cell-based
Details: 24 hours incubation
Experimental: Test example 4: Detection of HPK1 protein expression level in Jurkat cells (24 h)
Jurkat cells from ATCC were placed in a RPMI-1640 complete medium (supplemented with 10% FBS and 1% penicillin-streptomycin solution) and cultured at 37°C and 5% CO2. The cells in the logarithmic growth phase were collected, the cell density was adjusted to 5 × 10^5 cells/well with the culture medium, and the cells were added to a 6-well cell culture plate at a volume of 1 mL/well. The compound to be tested was prepared to 2-fold the final concentration, 1 mL of the compounds at different concentrations were added to administration wells, a medium containing 0.2% DMSO was added to control wells, and the plate was incubated at 37°C and 5% CO2 for 24 hours. The cells were collected into a 1.5 mL centrifuge tube, 30 µL of RIPA lysis buffer (containing 1X protease inhibitor cocktail) was added, and the cells were lysed on ice for 15 minutes and centrifuged at 12000 rpm/min at 4°C for 10 minutes. The supernatant was collected and the protein content was determined using the BCA method. The protein sample to be tested was diluted to 0.2 mg/mL, HPK1 was detected using a fully automated protein expression quantitative analyser (ProteinSimple), and the internal reference protein was β-actin (all antibodies were from CST). The software (Compass for SW) of the fully automated protein expression quantitative analyser was used to process the raw data and calculate the peak area after internal reference normalisation and the HPK1 degradation rate relative to the control group. The HPK1 degradation rate was calculated according to formula 4-1, where Aadministration well is the relative peak area of the administration group after internal reference normalisation, and Acontrol well is the relative peak area of the vehicle control group after internal reference normalisation. DC50 values were calculated using a four-parameter non-linear fitting model in Graphpad 8.3.0 software. HPK1_degradation % = 100−(Aadministration well/Acontrol well×100%) [formula] Table 4-1 Degradation activity of test compounds against HPK1 protein in Jurkat cells (24 h)

SMILES	DC50
CN(C)Cc1nc(Nc2ccc(-c3cnc4cc(F)ccn34)c3c2C(=O)NC3)ccc1C1CCN(CC2CCN(c3ccc(N4CCC(=O)NC4=O)c(F)c3)CC2)CC1 [Trifluoroacetic acid salt of compound 9]	< 20 nM

Same assay, conditions: 24 hours incubation, read-out: DC50

SMILES	DC50
O=C1CCN(c2cc3c(cc2F)N2CCN(CC4CC5(CCN(c6ccc(Nc7ccc(-c8cnc9cc(F)ccn89)c8c7C(=O)NC8)nc6)CC5)C4)C[C@H]2CC3)C(=O)N1 [Compound 16]	< 20 nM

Tested on: not listed separately
Assay: Pharmacokinetic test in mice
Assay type: in vivo, ICR mice
Details: mouse, plasma, IV, 1 mg/kg
Experimental: Test example 6: Pharmacokinetic test in mice
Experimental objective: In this experiment, a single dose of test substances was administered to ICR mice intravenously and intragastrically, the concentrations of the test compounds in plasma of mice were measured, and the pharmacokinetic characteristics and bioavailability of the test compounds in mice were evaluated.
Experimental animals: Male ICR mice, 20-35 g, purchased from Chengdu Dossy Experimental Animals Co., Ltd. (SCXK (CHUAN) 2020-030).
Experimental method: On the day of the experiment, the ICR mice were randomly grouped according to their body weights. The animals were fasted but with water available overnight before the administration, and fed 4 h after the administration.
Sampling: Blood was taken from the orbits of the mice at specified time points, and placed in an EDTAK2 centrifuge tube. Centrifugation was performed at 5000 rpm at 4°C for 10 min, and the plasma was collected.
Time points for plasma collection in G1 and G1-2 groups: 0, 5 min, 15 min, 30 min, 1 h, 2 h, 4 h, 7 h, and 24 h.
Time points for plasma collection in G2 and G2-2 groups: 0, 5 min, 15 min, 30 min, 1 h, 2 h, 4 h, 7 h, and 24 h.
Before analysis and detection, all the samples were stored at -60°C or lower. The samples were analysed quantitatively by LC-MS/MS. Table 6-1 PK data of test compound drug in mice

SMILES	clearance	half-life
N#Cc1ccn2c(-c3ccc(Nc4ccc(N5CCC6(CC5)CC(N5CCN7c8cc(F)c(N9CCC(=O)NC9=O)cc8CC[C@@H]7C5)C6)cn4)c4c3CNC4=O)cnc2c1 [Compound 48]	1.67 mL/min/kg	5.3 h

Same assay, conditions: mouse, plasma, po, i. g., 10 mg/kg

SMILES	AUC	Cmax	half-life
N#Cc1ccn2c(-c3ccc(Nc4ccc(N5CCC6(CC5)CC(N5CCN7c8cc(F)c(N9CCC(=O)NC9=O)cc8CC[C@@H]7C5)C6)cn4)c4c3CNC4=O)cnc2c1 [Compound 48]	25900 ng·h/mL	2300 ng/mL	4.9 h
